Data reported in patent US5627191A, “Therapeutic agents” (The Boots Company PLC, priority 1992, dated 1997).
Where a name gives a salt, the structure may show the parent alone.

How the values were obtained:
[1] = target: T1, adrenal membrane angiotensin II receptor (Oryctolagus cuniculus, UniProt P34976); assay: Test A: binding affinity to the adrenal membrane angiotensin II receptor in vitro; parameters: species or system rabbit (male New Zealand white); conditions: rabbit adrenal membranes, 0.05 nM [^125 I]angiotensin II, 60 minutes at 25° C.; read-out: Ki from Test A
T1 construct: Aliquots of rabbit adrenal membranes containing 10-30 μg protein were incubated; from tissue; host or cells: adrenal gland membranes of male New Zealand white rabbits
T1 sequence (P34976 1-359): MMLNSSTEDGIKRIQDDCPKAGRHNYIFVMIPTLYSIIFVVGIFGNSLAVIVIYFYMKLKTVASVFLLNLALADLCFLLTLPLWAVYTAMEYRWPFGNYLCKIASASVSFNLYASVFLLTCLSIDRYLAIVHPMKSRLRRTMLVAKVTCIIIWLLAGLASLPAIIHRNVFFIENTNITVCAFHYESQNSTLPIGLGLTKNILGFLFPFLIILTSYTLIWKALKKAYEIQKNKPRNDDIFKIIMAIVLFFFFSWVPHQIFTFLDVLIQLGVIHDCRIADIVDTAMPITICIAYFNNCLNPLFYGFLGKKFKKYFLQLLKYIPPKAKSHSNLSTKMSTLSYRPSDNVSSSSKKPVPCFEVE
Protocol: In test A the binding affinity of compounds to the adrenal membrane angiotensin II receptor was determined in vitro and in tests B and C the antihypertensive effect of the compounds was measured in vivo. A detailed description of the tests follows. Test A 1) Preparation of Membranes Adrenal glands from male New Zealand white rabbits were homogenised on ice in 20 mM aqueous sodium bicarbonate solution containing 50 μM PMSF (phenylmethanesulphonyl fluoride) (2 ml/g wet weight) using a Polytron (Trademark) homogeniser for 3×15 seconds at setting 8. The homogenate was centrifuged at 900 g for 10 minutes at 4° C. and the pellet was discarded. The supernatant was recentrifuged at 30000 g for 30 minutes at 4° C., and the resulting pellet was resuspended in assay buffer (50 mM Tris-HCl, pH 7.4, containing 1 mM EDTA, 6.5 mM MgCl2, 125 mM NACl, 50 μM PMSF, 5 μg/ml pepstatin and 50 μg/ml each of leupeptin, antipain, aprotinin and chymostatin): 10 ml per g original tissue wet weight. Polyethylene glycol was added (final concentration 30%) as a cryopreservant and the membrane preparation divided into aliquots and stored at -80° C. until required. Protein was determined by a modification of the method of Lowry (Markwell et al, (1978) Anal. Biochem., 87: 206-210). 2) Binding Assay Aliquots of rabbit adrenal membranes containing 10-30 μg protein were incubated with 0.05 nM [^125 I]angiotensin II in the presence or absence of potential angiotensin II antagonists in 1 ml polyamide tubes in a total volume of 200 μI assay buffer. After incubation for 60 minutes am 25° C. the reaction was terminated by the addition of ice-cold assay buffer, and the bound and free radioactivity was separated through Skatron (Trademark) receptor-binding filters, pre-wetted with assay buffer, using a Skatron cell harvester. The filters were washed with ice-cold phosphate buffered saline, dried, and the trapped radioactivity was determined using a gamma counter. Non-specific binding, measured in the presence of 2 μM unlabelled angiotensin II, was subtracted from total binding to obtain specific binding. Radioligand binding curves were analysed using EBDA and LIGAND (Cambridge Biosoft). Values for binding affinity were obtained by nonlinear regression analysis of untransformed data. The activities of the compounds described in the Examples given hereinafter are set out below in Table A, Column 1.

[2] = test system: Aoki-Okamoto strain of spontaneously hypertensive rat; assay: Test B: oral antihypertensive effect, threshold dose; type: in vivo; conditions: dose giving a reduction of blood pressure of between 9 and 16% after correction, 1.5 and 5.0 hours after dosing; for minimal effective dose: Rattus norvegicus, po, 5 h, read-out: Threshold anti-hypertensive dose from Test B
Protocol: (§1) In test A the binding affinity of compounds to the adrenal membrane angiotensin II receptor was determined in vitro and in tests B and C the antihypertensive effect of the compounds was measured in vivo. A detailed description of the tests follows.
(§2) Female rats, weight range 180-240 g, of the Aoki-Okamoto strain of spontaneously hypertensive rat were used. The rats in groups of four were fasted overnight before administration of the test compound. Blood pressure was determined in the following way. The rats were placed in a cabinet kept at 38° C. with their tails protruding through holes in the cabinet. After 30 minutes in the cabinet blood pressure was measured using an inflatable cuff placed round the base of the mail and arterial pulsations monitored with a pneumatic pulse transducer. […] The pressure in the cuff at which arterial pulsations reappeared was taken as the blood pressure. The rats were removed from the cabinet and each group orally dosed with a given dose of the test compound given as a solution or suspension in 0.25% aqueous carboxymethylcellulose. In addition to the predose reading, blood pressure was measured at 1.5 and 5.0 hours after dosing. The degree of blood pressure reduction sufficient to achieve a significance level of p<0.01 compared to controls was 9% after correction for control changes at appropriate time intervals. Thus, compounds were considered to be active in this test if they produced a reduction of blood pressure after correction of 9% or greater than 9%.
(§3) Threshold antihypertensive doses of compounds of formula I were determined in the following way. Compounds were tested initially at a particular dose level, for example 90 mg/kg.
The activities of the compounds described in the Examples given hereinafter are set out below in Table A, Column 2.

[3] = test system: Aoki-Okamoto strain of spontaneously hypertensive rat; assay: Test C: oral antihypertensive effect after pretreatment with bendrofluazide, threshold dose; type: in vivo; conditions: pretreated with bendrofluazide 10 mg/kg at 16 hours and 2 hours prior to dose
Protocol: as §1, §2, §3
The procedure of Test B above was carried out subject to the modification of pretreating the rats with bendrofluazide 10 mg/kg (an orally administered diuretic) at 16 hours and 2 hours prior to the dose of the test compound, to ensure activation of the reninangiotensin system.
The activities of the compounds described in the Examples given hereinafter are set out below in Table A, Column 3.

With `CCCc1nc2c(C)cc(C)nc2n1Cc1ccc(-c2ccccc2-c2c(O)c(=O)c2=O)cc1` [Example 8, 3-[4'-(5 7-dimethyl-2-propyl-3H-imidazo[4,5-b]pyrid-3-ylmethyl)biphenyl-2-yl]-4-hydroxycyclobut-3-ene-1,2-dione] the Ki [1] was 3.19 nM, the minimal effective dose [2] was 10 mg/kg and the “Threshold anti-hypertensive dose from Test C” value [3] was < 10 mg/kg.
In the case of `CCc1nc2c(C)cc(C)nc2n1Cc1ccc(-c2ccccc2-c2c(OCOC(=O)C(C)(C)C)c(=O)c2=O)cc1` [Example 13, 2-[4'-(2-ethyl-5,7-dimethyl-3H-imidazo[4,5-b]pyrid-3-ylmethyl)biphenyl-2-yl]-3,4-dioxocyclobut-1-en-1-yloxymethyl pivalate], the Ki [1] is reported as 19 nM, the minimal effective dose [2] is reported as 10 mg/kg and the “Threshold anti-hypertensive dose from Test C” value [3] is reported as < 10 mg/kg.
`CCc1nc2c(C)cc(C)nc2n1Cc1ccc(-c2ccccc2-c2c(O)c(=O)c2=O)cc1` (single isomer, unassigned) [Example 4, 3-[4'-(2-ethyl-5,7-dimethyl-3H-imidazo[4,5-b]pyrid-3-ylmethyl)biphenyl-2-yl]-4-hydroxycyclobut-3-ene-1,2-dione] was tested, and the Ki [1] was 5 nM, the “Threshold anti-hypertensive dose from Test B” value [2] was 0.1 mg/kg and the “Threshold anti-hypertensive dose from Test C” value [3] was 0.1 mg/kg.
For `CCc1nc2c(C)cc(C)nc2n1Cc1ccc(-c2ccccc2-c2c(OC(C)C)c(=O)c2=O)cc1` [Example 1, 3-[4'-(2-ethyl-5,7-dimethyl-3H-imidazo[4,5-b]pyrid-3-ylmethyl)biphenyl-2-yl]-4-isopropoxycyclobut-3-ene-1,2-dione], the Ki [1] was 97.6 nM and the “Threshold anti-hypertensive dose from Test C” value [3] was 30 mg/kg.
In the case of `CCCCN(Cc1ccc(-c2ccccc2-c2c(O)c(=O)c2=O)cc1)c1ncncc1C(=O)O` [Example 20, 4-[N-butyl-N-[2'-(2-hydroxy-3,4-dioxocyclobut-1-en-1-yl)biphenyl-4-ylmethyl]amino]pyrimidine-5-carboxylicacid 0.6 hydrochloride], the Ki [1] is reported as 81.7 nM, the minimal effective dose [2] is reported as 3 mg/kg and the “Threshold anti-hypertensive dose from Test C” value [3] is reported as 1 mg/kg.
In the case of `CCCCc1nc(Cl)c(/C=C(\Cc2ccccc2)C(=O)O)n1Cc1ccc(-c2c(O)c(=O)c2=O)cc1` [Example 30, (E)-2-benzyl-3-[2-butyl-4-chloro-1-[4-(2-hydroxy-3,4-dioxocyclobut-1-en-1-yl)benzyl]-1H-imidazol-5-yl]propenoic acid], the Ki [1] is reported as 77.9 nM and the “Threshold anti-hypertensive dose from Test C” value [3] is reported as ≤ 10 mg/kg.
`CCCc1nc(CC)c(C=O)n1Cc1ccc(-c2ccccc2-c2c(O)c(=O)c2=O)cc1` [Example 15, 4-ethyl-1-[2'-(2-hydroxy-3,4-dioxocyclobut-1-en-1-yl)biphenyl-4-ylmethyl]-2-propyl-1H-imidazole-5-carboxaldehyde] was tested, and the Ki [1] was 13.5 nM and the “Threshold anti-hypertensive dose from Test C” value [3] was 3 mg/kg.
In the case of `CCc1nc2c(C)c(S(=O)(=O)N(C)C)c(C)nc2n1Cc1ccc(-c2ccccc2-c2c(O)c(=O)c2=O)cc1` [Example 11, 2-ethyl-3-[2'-(2-hydroxy-3,4-dioxocyclobut-1-en-1-yl)biphenyl-4-ylmethyl]-5,7, N,N-tetramethyl-3H-imidazo[4,5-b]pyridine-6-sulphonamide mono-ethyl acetate solvate], the Ki [1] is reported as 393 nM.
`CCc1nc2c(C)cc(C)nc2n1Cc1ccc(-c2ccccc2-c2c(N)c(=O)c2=O)cc1` [Example 6, 3-amino-4-[4'-(2-ethyl-5,7-dimethyl-3H-imidazo[4,5-b]pyrid-3-ylmethyl)biphenyl-2-yl]cyclobut-3-ene-1,2-dione] showed a Ki [1] of 400 nM.
For `CCCc1nc2c(C)cc(C)nc2n1Cc1ccc(-c2ccccc2-c2c(O)c(=O)c2=O)cc1` [Example 9, sodium salt of 3-[4'-(5,7-dimethyl-2-propyl-3H-imidazo[4,5-b]-pyrid-3-ylmethyl)biphenyl-2-yl]-4-hydroxycyclobut-3-ene-1,2-dione], the Ki [1] was 3.71 nM, the “Threshold anti-hypertensive dose from Test B” value [2] was 10 mg/kg and the “Threshold anti-hypertensive dose from Test C” value [3] was 0.1 mg/kg.
`CCc1nc2c(C)cc(C)nc2n1Cc1ccc(-c2ccccc2-c2c(O)c(=O)c2=O)cc1` (single isomer, unassigned) [Example 5, sodium salt of 3-[4'-(2-ethyl-5,7-dimethyl-3H-imidazo[4,5-b]pyrid-3-ylmethyl)biphenyl-2-yl]-4-hydroxycyclobut-3-ene-1,2-dione] was tested, and the Ki [1] was 1.78 nM, the “Threshold anti-hypertensive dose from Test B” value [2] was 1 mg/kg and the “Threshold anti-hypertensive dose from Test C” value [3] was 1 mg/kg.
For `CCCCc1nc(Cl)c(C(=O)OC)n1Cc1ccc(-c2ccccc2-c2c(O)c(=O)c2=O)cc1` [Example 28, methyl 2-butyl-4-chloro-1-[2'-(2-hydroxy-3,4-dioxo-cyclobut-1-en-1-yl)biphenyl-4-ylmethyl]-1H-imidazole-5-carboxylate], the Ki [1] was 27.7 nM and the “Threshold anti-hypertensive dose from Test C” value [3] was 10 mg/kg.
`CCc1nc2c(C)c(Cl)c(C)nc2n1Cc1ccc(-c2ccccc2-c2c(O)c(=O)c2=O)cc1` [Example 12, 3-[4'-(6-chloro-2-ethyl-5,7-dimethyl-3H-imidazo-[4,5-b]pyrid-3-ylmethyl)biphenyl-2-yl]-4-hydroxy-cyclobut-3-ene-1,2-dione hydrochloride] showed a Ki [1] of 13.3 nM.
For `CCCCc1nc(Cl)c(C(=O)O)n1Cc1ccc(-c2ccccc2-c2c(O)c(=O)c2=O)cc1` [Example 29, 2-butyl-4-chloro-1-[2'-(2-hydroxy-3,4-dioxocyclobut-1-en-1-yl)biphenyl-4-ylmethyl]-1H-imidazole-5-carboxylic acid 0.4 hydrochloride], the Ki [1] was 13.7 nM, the minimal effective dose [2] was > 3 mg/kg and the “Threshold anti-hypertensive dose from Test C” value [3] was 3 mg/kg.
For `CCCCc1nc(Cl)c(C=O)n1Cc1ccc(-c2ccccc2-c2c(O)c(=O)c2=O)cc1` [Example 24, 2-butyl-4-chloro-1-[2'-(2-hydroxy-3,4-dioxocyclobut-1-en-1-yl)biphenyl-4-ylmethyl]-1H-imidazole-5-carboxaldehyde], the Ki [1] was 11.1 nM and the “Threshold anti-hypertensive dose from Test C” value [3] was 3 mg/kg.
In the case of `CCCCC1=NC2(CCCC2)C(=O)N1Cc1ccc(-c2ccccc2-c2c(O)c(=O)c2=O)cc1` [Example 22, 3-[4'-(2-butyl-5-oxo-2-imidazoline-4-spirocyclopent-1-ylmethyl)biphenyl-2-yl]-4-hydroxycyclobut-3-ene-1,2-dione], the Ki [1] is reported as 3.68 nM and the “Threshold anti-hypertensive dose from Test C” value [3] is reported as 30 mg/kg.
